Experimental data from ChEMBL document CHEMBL2417448, “Cytotoxic triterpenoids from Lysimachia parvifolia” (Eur J Med Chem, 2013).

Assays:
Format in all cases: functional, cell-based
U-266 = test: Cytotoxicity against human U266 cells after 24 hrs by MTT assay; settings: U-266, 24 h
[1] = Cytotoxicity against human Bel7404 cells after 24 hrs by MTT assay; settings: BEL-7404, 24 h
A549 = test: Cytotoxicity against human A549 cells after 24 hrs by MTT assay; settings: A549, 24 h
HepG2 = test: Cytotoxicity against human HepG2 cells after 24 hrs by MTT assay; settings: HepG2, 24 h
SGC-7901 = test: Cytotoxicity against human SGC7901 cells after 24 hrs by MTT assay; settings: SGC-7901, 24 h
HL-60 = test: Cytotoxicity against human HL60 cells after 24 hrs by MTT assay; settings: HL-60, 24 h

SMILES | IC50 (U-266) | IC50 [1] | IC50 (A549) | IC50 (HepG2) | IC50 (SGC-7901) | IC50 (HL-60)
CC1(C)CC[C@]23CO[C@@]4(CC[C@@H]5[C@@]6(C)CC[C@H](O[C@@H]7OC[C@H](O[C@@H]8O[C@H](CO)[C@@H](O)[C@H](O)[C@H]8O)[C@H](O)[C@H]7O)[C@@](C)(CO)[C@@H]6CC[C@@]5(C)[C@]4(C)CC2=O)[C@@H]3C1 [ANAGALLIGENONE-3-O-[BETA-D-GLUCOPYRANOSYL(1->4)-ALPHA-L-ARABINOPYRANOSIDE] | 13.9 µM | 17.3 µM | 14.6 µM | 16.2 µM | 19 µM | 16.3 µM
CC1(C)CC[C@]23CO[C@@]4(CC[C@@H]5[C@@]6(C)CC[C@H](O[C@@H]7OC[C@H](O)[C@H](O)[C@H]7O)[C@@](C)(CO)[C@@H]6CC[C@@]5(C)[C@]4(C)CC2=O)[C@@H]3C1 [ANAGALLIGENONE-3-O-ALPHA-L-ARABINOPYRANOSIDE] | 94.8 µM | 75.5 µM | 85.3 µM | 55.4 µM | > 100 µM | > 100 µM
CC1(C)CC[C@]23CO[C@@]4(CC[C@@H]5[C@@]6(C)CC[C@H](O[C@@H]7OC[C@H](O[C@@H]8O[C@H](CO)[C@@H](O)[C@H](O)[C@H]8O[C@@H]8OC[C@@H](O)[C@H](O)[C@H]8O)[C@H](O)[C@H]7O)[C@@](C)(CO)[C@@H]6CC[C@@]5(C)[C@]4(C)CC2=O)[C@@H]3C1 [ANAGALLIGENONE-3-O-[BETA-D-XYLOPYRANOSYL(1->2)-BETA-D-GLUCOPYRANOSYL(1->4)-ALPHA-L-ARABINOPYRANOSIDE]] | 10.4 µM | 9.14 µM | 10.9 µM | 8.87 µM | 9.24 µM | 10.3 µM
CC(=O)O[C@H]1CC(C)(C)C[C@@H]2[C@]13CO[C@@]21CC[C@@H]2[C@@]4(C)CC[C@H](O[C@@H]5OC[C@H](O[C@@H]6O[C@H](CO)[C@@H](O)[C@H](O)[C@H]6O)[C@H](O)[C@H]5O[C@@H]5O[C@H](CO)[C@@H](O)[C@H](O)[C@H]5O[C@@H]5OC[C@@H](O)[C@H](O)[C@H]5O)C(C)(C)[C@@H]4CC[C@@]2(C)[C@]1(C)C[C@H]3O | 8.83 µM | 5.88 µM | 5.28 µM | 4.92 µM | 7.69 µM | 6.8 µM
CC1(C)C[C@@H]2[C@]3(CO[C@@]24CC[C@@H]2[C@@]5(C)CCC(=O)[C@@](C)(CO)[C@@H]5CC[C@@]2(C)[C@]4(C)CC3=O)[C@@H](O)C1 | > 100 µM | > 100 µM | > 100 µM | > 100 µM | > 100 µM | > 100 µM
CC1(C)C[C@@H]2[C@]3(CO[C@@]24CC[C@@H]2[C@@]5(C)CC[C@H](O)[C@@](C)(CO)[C@@H]5CC[C@@]2(C)[C@]4(C)CC3=O)[C@@H](O)C1 | > 100 µM | > 100 µM | > 100 µM | > 100 µM | > 100 µM | > 100 µM
